Patent US6342187B1, “Process and apparatus for dry sterilization of medical devices and materials” (priority 1987, dated 2002)
“And” between values parts separate entries of the source, which are not always exact repeats. Equal values may be shown once. Read-outs that look alike come from different tables or passages of the source.

Key:
Format in all cases: cell-based
[1] = test system: biological indicator organism; experiment: Example 21 designed experiments, modified AAMI EO test packs, log reduction (organism not specified); conditions: Example 21, mean over designed experiments; both precursors vaporized at 74° C.; 40 kHz, 5 kW
Description: AAMI EO Test Packs: Modified AAMI Standard EO packs were prepared in which the BI strip was removed from its glassine wrap before processing. Three strips were placed in each syringe, and the syringe was closed at its large end with the standard rubber stopper. A second syringe was prepared containing one MDT Biosign CLBI (results reported as fractional negative). The syringes were placed adjacent to one another and were wrapped in a huckabuck towel per the AAMI EO Test Pack standard. The entire assembly was placed in a Baxter ‘Tower Dual-Peel’ 7.5″×13″ paper-plastic peel pouch, which was subsequently heat sealed.
Statistical Design of Experiments: This example is based upon both Taguchi and Greco-Latin Square experimental designs in accordance with standard statistical design of experiment techniques [CSS:Statistica, StatSoft, Tulsa, Okla. ]. These experimental designs permitted variation of four parameters over four discrete levels (Greco-Latin Square) or five parameters over four discrete levels (Taguchi L′16 design). The resultant data, reported as log reduction, is analyzed to provide mean values for each of the parameters at each parameter level. Also provided are ANOVA and correlation results (for reduction vs. exposure time), which evaluate the statistical validity of the data. […]

[2] = test system: Bstm; experiment: Example 22 direct comparison of sterilant precursors, AAMI standard EO test packs; conditions: Example 22: 45 min plasma, 40 kHz, 5 kW, 600 microns; 30 min preconditioning; base pressure 100 microns; Bstm 10^6 spores; peracetic acid vaporized at 60° C., hydrogen peroxide at 74° C.
Description: A direct comparison of 15% peracetic acid and 70% hydrogen peroxide sterilant precursors was made by exposing AAMI standard EO test packs for 45 minutes to plasma induced by 40 kHz excitation frequency with 5 kW RF power. […] No glassine was used on the BI strips (Bstm, 10^6 spore population, MDT lot 601).

[3] = test system: Bacillus Subtilis var Niger; conditions: for vials with total kill, of ten Attest vials: Pyrex chamber, cooled cylinder, 0.280-0.300 torr, 38-57° C., moist = H2O 300 ppm
Text: However, for each of the examples the general technique involved was one in which the material to be sterilized was placed directly in the reaction chamber, or placed within a Tyvek/polyethylene pouch which itself was sealed and placed in a wire basket within the reaction chamber.
The materials used for verification of sterilization effectiveness were “Attest” vials obtained from 3M Company, or “Spordex” bacterial test strips obtained from the American Sterilizer Company, each vial or “Spordex” envelope contained a bacterial strip having an original spore population of not less than 1×10^6 Bacillus Subtilis var Niger per strip, but more commonly in the range 2.2-4.0×10^6 spores/strip. The strips contained the permeable plastic vials were not brought into contact with the culture solution contained in any of the vials prior to sterilization. The vials were placed within the Tyvek/polyethylene bags during the plasma sterilization, alongside devices or instruments to be sterilized. The bags were always sealed during the sterilization process.
For each example the chamber was first evacuated to an initial low pressure level after the materials (in the bags or pouches) were placed within it. The chamber was thereafter filled with the appropriate gas prior to striking the discharge, and the gas continued to flow through the chamber at a controlled rate to establish a steady state sterilization pressure. The discharge was initiated by the application of RF or microwave power as indicated. The discharge was maintained for a controlled time period at the end of which the power was turned off, the chamber was first evacuated, then backfilled with air through a bacteria retentive filter, and later opened and the samples removed. The temperature within the chamber during the process was maintained at less than 70° C., and more typically around 25° C. to 65° C., as sensed by an iron-constantan, type “J”, thermocouple circuitry and monitored by an analog temperature meter.
Subsequent to the tests, the spore strips in the “Attest” vials where brought into contact with the self-contained culture solution and incubated for 72 hr, at the end of which period microorganism growth or no growth would be indicated by the resultant color of the culture solution. Alternatively, the spore strips were submitted to an independent testing laboratory which performed a total plate count on the sample strips using a procedure in which 100 milliliters of sterile deionized water were added to each strip in a sterile whirl-pak bag. The bag was then placed in a lab blender for 10 minutes. One 10 milliliter aliquot of sample, a duplicate one milliliter sample, and two consecutive 10^−1 dilutions were plated using Tryptic Soy Agar. The plates were then incubated at 30-35° C. for 72 hours. After incubation, the plates were read and recorded, and the results calculated on a Colony Forming Unit (CFU) basis.

Structure (SMILES): CC(=O)OO [15% peracetic acid, peracetic acid]
- mean log reduction [1]: 2.8 log reduction
- mean log reduction [2]: 5.57

Structure (SMILES): OO [70% hydrogen peroxide, hydrogen peroxide]
- mean log reduction [1]: 3.1 log reduction
- mean log reduction [2]: 5.43

Structure (SMILES): N#N [Dry N2, Nitrogen]
- vials with total kill, of ten Attest vials ([3]; Example 18: exposure 30 min, 100 scc/min, 0.020 W/cc): 0 vials - total kill
- vials with total kill, of ten Attest vials ([3]; Example 18: exposure 45 min, 100 scc/min, 0.020 W/cc): 0 vials - total kill
- vials with total kill, of ten Attest vials ([3]; Example 18: exposure 60 min, 100 scc/min, 0.020 W/cc): 1 vial - total kill vials
- vials with total kill, of ten Attest vials ([3]; Example 18: exposure 75 min, 100 scc/min, 0.020 W/cc): 2 vials - total kill

Structure (SMILES): O=O [O2, Oxygen]
- Percent Kill [3]: 99.9999%
- Percent Kill (%) [3]: 77.6923% and 99.9999%
- Resultant Microbial Count (CFUs) [3]: 5.8 × 10^5 CFUs and <10 CFUs
- Resultant microbial count [3]: < 10 CFU
- Percent Kill ([3]; Example 2: metal chamber, cooled perforated cylinder (FIG. 4), 20 scc/min, 0.30 torr, 0.050 W/cm^3, 60 min, 32° C.): Total kill
- Percent Kill ([3]; Example 4: metal chamber, two uncooled perforated cylinders (FIG. 6), 20 scc/min, 0.30 torr, 0.050 W/cm^3, 60 min, 76° C.): Total kill
- Percent Kill ([3]; Example 8: Pyrex chamber, cooled perforated cylinder (FIG. 1), 25 scc/min, 0.30 torr, 0.015 W/cm^3, 30 min, 26° C.): Total kill
- Percent Kill ([3]; Example 9: Pyrex chamber, uncooled perforated cylinder (FIG. 1), 25 scc/min, 0.30 torr, 0.015 W/cm^3, 30 min, 83° C.): Total kill
- Percent Kill ([3]; Example 12: Pyrex chamber, two uncooled perforated cylinders, 70 scc/min, 0.275 torr, 0.016 W/cc, 45 min, 92° C., AAMI standard sterilization test pack): Total Kill
- Percent Kill ([3]; Example 13: Pyrex chamber, two cooled perforated cylinders, conditions as Example 12, 54° C., AAMI test pack): Total Kill
- Percent Kill ([3]; Example 14: Pyrex chamber, uncooled perforated cylinder, 70 scc/min, 0.275 torr, 0.014 W/cc, 30 min, 85° C.): Total Kill
- Percent Kill ([3]; Example 15: Pyrex chamber, cooled perforated cylinder (FIG. 1), conditions as Example 14, 47° C.): Total Kill
- Percent Kill ([3]; Example 16: Pyrex chamber, cooled perforated cylinder (FIG. 1), conditions as Example 14, exposure 2¼ hr, 51° C.): Total Kill
- Percent Kill ([3]; Example 19: spore strip in middle of 24-inch PVC or silicone rubber tubing, in sealed pouch, 100 scc/min, 0.280 torr, 0.020 W/cc, 70-105 min, 50° C.): Total Kill
